Assay results published in patent US20050250738A1, “Taste-masked formulations containing sertraline and sulfoalkyl ether cyclodextrin” (priority 2004, published 2005).

Key:
[1] = Phase solubility of sertraline with cyclodextrins; assay type: physicochemical; details: about 25° C., pH not adjusted, higher cyclodextrin concentration (above about 0.08 M)
Procedure: At lower molar concentrations of cyclodextrin (less than about 0.08 M), the phase solubility curve for each cyclodextrin is very similar.
The phase solubility curves for sertraline with SAE-CD, HP-β-CD and γ-CD were determined according to procedures well known in the art (Higuchi et al. in Phase Solubility Techniques, in Advances in Analytical Chemistry and Instrumentation (Ed. C. N. Reilly, John Wiley & Sons Inc., Vol. 4 (1965), pg. 117-212) the relevant disclosure of which is hereby incorporated by reference). The results are depicted in FIG. 1.

[2] = Solubility of sertraline HCl versus pH in SBE-β-CD solutions; assay type: physicochemical; details: 0, 10% or 20% sulfobutylether-β-cyclodextrin (DS=6.7), buffers pH 1, 3, 5, 7
Procedure: Aqueous 0.01M buffers were prepared at pH values of 1 (HCl), 3 and 5 (citric acid/sodium citrate), and 7 (monobasic potassium phosphate) and used to prepare solutions containing 0, 10% or 20% sulfobutylether-β-cyclodextrin (DS=6.7). Excess sertraline HCl was added to each of the solutions and allowed to mix for three days. The solutions were centrifuged and the supernatants analyzed for sertraline content and final pH.

| Compound | Phase solubility of sertraline with cyclodextrin [1] | Effect of solution pH upon solubility [2] |
| --- | --- | --- |
| 2-hydroxypropyl-β-cyclodextrin [HP-β-CD] | outperform the γ-CD | – |
| CN[C@H]1CC[C@@H](c2ccc(Cl)c(Cl)c2)c2ccccc21 [sertraline, (1S-cis)-4-(3,4-dichlorophenyl)-1,2,3,4-tetrahydro-N-methyl-1-naphthalenamine] | – | independent of the pH over the range evaluated |
| Sulfobutyl Ether-β-Cyclodextrin [SBE7-β-CD] | outperform the γ-CD | – |
